Counter-ions that a name gives are not always drawn.
Target: T1, steroid 17α-hydroxylase and/or steroid C17-20 lyase (Rattus norvegicus, UniProt P11715)
T1 construct: the testis of rats (SD, male) was homogenized and centrifuged to obtain microsome; from tissue; host or cells: rat (SD, male) testis microsomes
T1 sequence (P11715 1-507): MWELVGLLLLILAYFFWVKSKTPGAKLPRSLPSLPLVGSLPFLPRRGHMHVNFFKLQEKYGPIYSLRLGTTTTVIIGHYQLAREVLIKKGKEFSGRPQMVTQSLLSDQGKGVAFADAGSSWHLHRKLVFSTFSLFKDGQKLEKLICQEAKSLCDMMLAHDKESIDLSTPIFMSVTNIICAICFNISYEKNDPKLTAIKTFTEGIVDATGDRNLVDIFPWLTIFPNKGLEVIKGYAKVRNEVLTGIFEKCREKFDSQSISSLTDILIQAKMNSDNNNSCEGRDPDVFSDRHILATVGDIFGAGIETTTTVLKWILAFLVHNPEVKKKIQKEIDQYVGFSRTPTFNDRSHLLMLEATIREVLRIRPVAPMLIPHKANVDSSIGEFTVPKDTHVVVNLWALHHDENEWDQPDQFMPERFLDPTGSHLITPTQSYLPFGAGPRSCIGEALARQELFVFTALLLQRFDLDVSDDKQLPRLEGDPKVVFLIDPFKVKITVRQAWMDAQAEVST
Experiment: Measurement of steroid 17α-hydroxylase and/or steroid C17-20 lyase inhibitory activity (rat testis microsome, HPLC)
Format: biochemical
Settings: Enzyme source: rat testis microsome; test compound 300 nM; substrate 25 μM 17α-hydroxyprogesterone; NADPH 500 μM; 20 minutes at 37° C.
Description: An experiment was carried out according to the method of T. Sergejew and R. W. Hartmann (J. Enzyme Inhibition, 8, 113(1994)). That is, the testis of rats (SD, male) was homogenized and centrifuged to obtain microsome. […] After the addition of 100 μl of microsome protein solution, the protein contentration was adjusted to 0.1 mg/ml by 50 mM phosphate buffer solution (pH 7.4), 140 μl of 125 nmol NADPH solution, and 10 μl of 6.25 nmol 17α-hydroxyprogesterone, the mixture was incubated for 20 minutes at 37° C. 50 μl of 1N hydrochloric acid and 1000 μl of ethyl acetate were sequentially added to the mixture. The mixture was shaken and centrifuged. The ethyl acetate layer was washed with 250 μl of 50 mM phosphate buffer solution (pH 7.4) and 50 μl of 1N hydrochloric acid, centrifuged, and concentrated. The concentrate was dissolved in 100 μl of acetonitrile. 10 μl of this solution was charged to high performance liquid chromatography. The amounts of the substrate and the product (androstenedione and testosterone) were measured to calculate the enzyme activity. In this experiment, a sample without the test compound was provided as a control group. Steroid 17α-hydroxylase and/or steroid C17-20-lyase inhibitory activity (%) was calculated by the following equation (1) using the amounts of the substrate and the product obtained.

inhibition at 0.3 µM [%]	Inhibitory activity (%)	SMILES
64		CC(=O)c1cccc(-c2ccc3c(-c4cccnc4)csc3c2)c1 [Example 39, 1-{3-[3-(3-pyridyl)benzo[b]thiophen-6-yl]phenyl}-1-ethanone]
42		Brc1ccc2c(-c3cccnc3)csc2c1 [Example 28, 3-(6-bromobenzo[b]thiophen-3-yl)pyridine hydrochloride]
100		CC(C)Cc1ccc2c(-c3cccnc3)csc2c1 [Example 46, 3-(6-isobutylbenzo[b]thiophen-3-yl)pyridine hydrochloride]
37		COc1ccc(-c2ccc3c(-c4cccnc4)csc3c2)cc1 [Example 18, 3-[6-(4-methoxyphenyl)benzo[b]thiophen-3-yl]pyridine]
46		CC(=O)c1ccc(-c2ccc3c(-c4cccnc4)csc3c2)cc1 [Example 44, 1-{4-[3-(3-pyridyl)benzo[b]thiophen-6-yl]phenyl}-1-ethanone]
100		Nc1cccc(-c2ccc3c(-c4cccnc4)csc3c2)c1 [Example 23, 3-[3-(3-pyridyl)benzo[b]thiophen-6-yl]phenylamine]
71		c1ccc(COc2ccc3c(-c4cccnc4)csc3c2)cc1 [Example 11, 3-(6-benzyloxybenzo[b]thiophen-3-yl)pyridine hydrochloride]
59		Oc1ccc2c(-c3cccnc3)csc2c1 [Example 8, 3-(3-pyridyl)benzo[b]thiophen-6-ol]
100		c1cncc(-c2csc3cc(-c4ccco4)ccc23)c1 [Example 34, 3-[6-(2-furyl)benzo[b]thiophen-3-yl]pyridine hydrochloride]
67		CC(C)Nc1cccc(-c2ccc3c(-c4cccnc4)csc3c2)c1 [Example 49, isopropyl {3-[3-(3-pyridyl)benzo[b]thiophen-6-yl]phenyl}amine]
95		CCCOc1ccc2c(-c3cccnc3)csc2c1 [Example 41, 3-(6-propyloxybenzo[b]thiophen-3-yl)pyridine hydrochloride]
73		COc1cccc(-c2ccc3c(-c4cccnc4)csc3c2)c1 [Example 16, 3-[6-(3-methoxyphenyl)benzo[b]thiophen-3-yl]pyridine hydrochloride]
76		c1cncc(-c2csc3cc(OC4CCCC4)ccc23)c1 [Example 25, 3-(6-cyclopentyloxybenzo[b]thiophen-3-yl)pyridine hydrochloride]
	71	O=C(Oc1ccc2c(-c3cccnc3)csc2c1)c1ccccc1 [Example 10, 3-(3-pyridyl)benzo[b]thiophen-6-yl=benzoate]
60		CCCCCOc1ccc2c(-c3cccnc3)csc2c1 [Example 36, 3-(6-amyloxybenzo[b]thiophen-3-yl)pyridine hydrochloride]
89		COc1ccc2c(-c3cccnc3)csc2c1 [Example 2, 3-[6-methoxybenzo[b]thiophen-3-yl]pyridine hydrochloride]
97		CCOc1ccc2c(-c3cccnc3)csc2c1 [Example 43, 3-(6-ethyloxybenzo[b]thiophen-3-yl)pyridine hydrochloride]
60		COc1ccc(-c2ccc3c(-c4ccncc4)csc3c2)cc1 [Example 7, 4-[6-(4-methoxyphenyl)benzo[b]thiophen-3-yl]pyridine]
100		c1cncc(-c2csc3cc(-c4ccoc4)ccc23)c1 [Example 32, 3-[6-(3-furyl)benzo[b]thiophen-3-yl]pyridine hydrochloride]
93		Fc1ccc(-c2ccc3c(-c4cccnc4)csc3c2)cc1 [Example 13, 3-[6-(4-fluorophenyl)benzo[b]thiophen-3-yl]pyridine hydrochloride]
33		CN(C)CCOc1ccc2c(-c3cccnc3)csc2c1 [Example 45, 3-[6-(N,N-dimethyl-2-aminoethyloxy)benzo[b]thiophen-3-yl]pyridine dimaleate]
80		c1cncc(-c2csc3cc(C4CCCCC4)ccc23)c1 [Example 50, 3-(6-cyclohexylbenzo[b]thiophen-3-yl)pyridine hydrochloride]

inhibition at 0.3 µM [%]	Inhibitory activity (%)	SMILES
61		CCCCCCOc1ccc2c(-c3cccnc3)csc2c1 [Example 35, 3-(6-hexyloxybenzo[b]thiophen-3-yl)pyridine hydrochloride]
100		CC(C)Oc1ccc2c(-c3cccnc3)csc2c1 [Example 12, 3-(6-isopropyloxybenzo[b]thiophen-3-yl)pyridine hydrochloride]
37		CC(C)Oc1cccc(-c2ccc3c(-c4cccnc4)csc3c2)c1 [Example 51, 3-[6-(3-isopropyloxyphenyl)benzo[b]thiophen-3-yl]pyridine hydrochloride]
68		Oc1ccc(-c2ccc3c(-c4cccnc4)csc3c2)cc1 [Example 19, 4-[3-(3-pyridyl)benzo[b]thiophen-6-yl]-phenol]
56		Cc1ccc2c(-c3cccnc3)csc2c1 [Example 27, 3-(6-methylbenzo[b]thiophen-3-yl)pyridine hydrochloride]
73		Oc1ccc(-c2ccc3c(-c4cccnc4)csc3c2)cc1O [Example 22, 4-[3-(3-pyridyl)benzo[b]thiophen-6-yl]benzene-1,2-diol]
93		CCCc1ccc2c(-c3cccnc3)csc2c1 [Example 52, 3-(6-propylbenzo[b]thiophen-3-yl)pyridine hydrochloride]
86		O=[N+]([O-])c1cccc(-c2ccc3c(-c4cccnc4)csc3c2)c1 [Example 53, 3-[6-(3-nitrophenyl)benzo[b]thiophen-3-yl]pyridine]
100		c1cncc(-c2csc3cc(-c4cccs4)ccc23)c1 [Example 33, 3-[6-(2-thienyl)benzo[b]thiophen-3-yl]pyridine hydrochloride]
	63	CC(=O)Oc1ccc2c(-c3cccnc3)csc2c1 [Example 9, 3-(3-pyridyl)benzo[b]thiophen-6-yl=acetate]
63		CC(=O)Nc1ccc2c(-c3cccnc3)csc2c1 [Example 56, N1-[3-(3-pyridyl)benzo[b]thiophen-6-yl]acetamide]
45		CC(=O)c1ccccc1-c1ccc2c(-c3cccnc3)csc2c1 [Example 38, 1-{2-[3-(3-pyridyl)benzo[b]thiophen-6-yl]phenyl}-1-ethanone hydrochloride]
1		COc1cccc(Oc2ccc3c(-c4cccnc4)csc3c2)c1 [Example 26, 3-[6-(3-methoxyphenoxy)benzo[b]thiophen-3-yl]pyridine hydrochloride]
91		Fc1cccc(-c2ccc3c(-c4cccnc4)csc3c2)c1 [Example 14, 3-[6-(3-fluorophenyl)benzo[b]thiophen-3-yl]pyridine]
100		c1cncc(-c2csc3cc(OC4CCC4)ccc23)c1 [Example 30, 3-(6-cyclobutyloxybenzo[b]thiophen-3-yl) pyridine hydrochloride]
53		CSc1ccc(-c2ccc3c(-c4cccnc4)csc3c2)cc1 [Example 47, 3-[6-(4-methylthiophenyl)benzo[b]thiophen-3-yl]pyridine hydrochloride]
100		c1cncc(-c2csc3cc(-c4ccsc4)ccc23)c1 [Example 31, 3-[6-(3-thienyl)benzo[b]thiophen-3-yl]pyridine hydrochloride]
57		c1cncc(-c2csc3cc(-c4ccc5c(c4)OCO5)ccc23)c1 [Example 42, 3-[6-(1,3-benzodioxol-5-yl)benzo[b]thiophen-3-yl]pyridine hydrochloride]
80		CCCCOc1ccc2c(-c3cccnc3)csc2c1 [Example 37, 3-(6-butyloxybenzo[b]thiophen-3-yl)pyridine hydrochloride]
25		Brc1cccc2scc(-c3cccnc3)c12 [Example 29, 3-(4-bromobenzo[b]thiophen-3-yl)pyridine hydrochloride]
98		CC(C)Nc1ccc2c(-c3cccnc3)csc2c1 [Example 54, isopropyl[3-(3-pyridyl)benzo[b]thiophen-6-yl]amine]
93		c1ccc(-c2ccc3c(-c4cccnc4)csc3c2)cc1 [Example 15, 3-(6-phenylbenzo[b]thiophen-3-yl)pyridine]
